According to patent US20090234097A1, “VASODILATOR” (CALPIS CO., LTD., priority 2006, published 2009):

Tested on: thoracic aorta ring of a Wistar rat
Experiment: Vasodilating test on phenylephrine-preconstricted aorta ring (Magnus apparatus)
Settings: at 10 mM (printed 10 mm); aorta ring preconstricted with 1 μM phenylephrine
Procedure: The thoracic aorta of a Wistar rat was taken out, cut into 2 mm long, and made into an aorta ring. The ring was set in a Magnus apparatus (product name “micro tissue organ bath MTB-1Z”, manufactured by LABO SUPPORT CO., LTD.), and allowed to equilibrate with a constant tension. The constriction response of the aorta ring was confirmed with 50 mM KCl.
Next, the aorta ring was preliminarily constricted with 1 μM phenylephrine, and VPP and IPP prepared in Synthesis Example were added at ten-fold increasing concentrations from 10^−9 M to observe the vasodilator response through the change in tension of the aorta ring. The dose dependency of the vasodilator response was also studied.
The vasodilating test was conducted in the same way as in Example 1, except that the tripeptides VPP and IPP were replaced with amino acids, valine (Val) and proline (Pro), at the same concentration.

SMILES | vasodilator response (change in tension of the aorta ring)
CC(C)[C@H](N)C(=O)O [Val, valine] | no vasodilator response was observed
O=C(O)[C@@H]1CCCN1 [Pro, proline] | no vasodilator response was observed
